From paper PMC9151804, “Carotenoid binding in Gloeobacteria rhodopsin provides insights into divergent evolution of xanthorhodopsin types” (Communications Biology, 2022) come the findings set out here.

Common to all, as to assay: co-expression in E. coli, purification, chromophore extraction and absorbance
Holding throughout (type): binding
Settings in all cases: all-trans-retinal-bound protein; 0.02% DDM, 150 mM NaCl, 50 mM Tris, pH 7.0

Experiment [1] deals with T1, Gloeobacter rhodopsin (GR) (Gloeobacter violaceus, UniProt Q7NP59, T179G/T182G/F185G).
T1 construct: gene gll0198

Experiment [2] deals with T2, Gloeobacter rhodopsin (GR) (Gloeobacter violaceus, UniProt Q7NP59, T179G/T182G).
T2 construct: gene gll0198

The target of experiment [3] is T3, Gloeobacter rhodopsin (GR) (Gloeobacter violaceus, UniProt Q7NP59, T179G).
T3 construct: gene gll0198

The target of experiment [4] is T4, Gloeobacter rhodopsin (GR) (Gloeobacter violaceus, UniProt Q7NP59, F185G).
T4 construct: gene gll0198

Experiment [5] addresses T5, Gloeobacter rhodopsin (GR) (Gloeobacter violaceus, UniProt Q7NP59, S181G).
T5 construct: gene gll0198

The target in experiment [6] is T6, Gloeobacter rhodopsin (GR) (Gloeobacter violaceus, UniProt Q7NP59, G178W).
T6 construct: gene gll0198

In experiment [7] the target is T7, Gloeobacter rhodopsin (GR) (Gloeobacter violaceus, UniProt Q7NP59, I227G).
T7 construct: gene gll0198

Experiment [8] addresses T8, Gloeobacter rhodopsin (GR) (Gloeobacter violaceus, UniProt Q7NP59, S221G).
T8 construct: gene gll0198

Experiment [9] has as its target T9, Gloeobacter rhodopsin (GR) (Gloeobacter violaceus, UniProt Q7NP59, P226G/I227G).
T9 construct: gene gll0198

Experiment [10] deals with T10, Gloeobacter rhodopsin (GR) (Gloeobacter violaceus, UniProt Q7NP59, P226G).
T10 construct: gene gll0198

The target in experiment [11] is T11, Gloeobacter rhodopsin (GR) (Gloeobacter violaceus, UniProt Q7NP59).
T11 construct: gene gll0198
T11 sequence (Q7NP59 1-298): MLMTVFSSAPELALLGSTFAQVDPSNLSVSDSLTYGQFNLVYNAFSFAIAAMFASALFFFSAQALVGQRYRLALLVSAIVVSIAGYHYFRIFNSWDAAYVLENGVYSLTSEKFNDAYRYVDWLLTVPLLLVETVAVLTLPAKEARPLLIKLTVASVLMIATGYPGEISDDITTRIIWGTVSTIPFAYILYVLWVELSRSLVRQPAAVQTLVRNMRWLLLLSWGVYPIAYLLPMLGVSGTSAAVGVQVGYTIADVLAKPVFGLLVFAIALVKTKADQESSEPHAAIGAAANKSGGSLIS

T1 sequence (Q7NP59 entry or part of it T179G/T182G/F185G): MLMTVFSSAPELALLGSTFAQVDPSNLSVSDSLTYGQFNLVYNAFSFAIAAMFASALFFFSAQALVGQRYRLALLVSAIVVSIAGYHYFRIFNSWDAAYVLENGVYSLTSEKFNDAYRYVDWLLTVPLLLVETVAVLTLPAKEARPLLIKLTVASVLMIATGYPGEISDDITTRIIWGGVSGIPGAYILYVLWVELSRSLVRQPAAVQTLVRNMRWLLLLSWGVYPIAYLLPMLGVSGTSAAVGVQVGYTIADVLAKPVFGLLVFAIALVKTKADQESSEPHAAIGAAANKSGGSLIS
T4 sequence (Q7NP59 entry or part of it F185G): as the sequence (Q7NP59 entry or part of it T179G/T182G/F185G) above, with G179T, G182T counted along it
T10 sequence (Q7NP59 entry or part of it P226G): as the sequence (Q7NP59 entry or part of it T179G/T182G/F185G) above, with G179T, G182T, G185F, P226G counted along it
T3 sequence (Q7NP59 entry or part of it T179G): as the sequence (Q7NP59 entry or part of it T179G/T182G/F185G) above, with G182T, G185F counted along it
T7 sequence (Q7NP59 entry or part of it I227G): as the sequence (Q7NP59 entry or part of it T179G/T182G/F185G) above, with G179T, G182T, G185F, I227G counted along it
T9 sequence (Q7NP59 entry or part of it P226G/I227G): as the sequence (Q7NP59 entry or part of it T179G/T182G/F185G) above, with G179T, G182T, G185F, P226G, I227G counted along it
T5 sequence (Q7NP59 entry or part of it S181G): as the sequence (Q7NP59 entry or part of it T179G/T182G/F185G) above, with G179T, S181G, G182T, G185F counted along it
T2 sequence (Q7NP59 entry or part of it T179G/T182G): as the sequence (Q7NP59 entry or part of it T179G/T182G/F185G) above, with G185F counted along it
T6 sequence (Q7NP59 entry or part of it G178W): as the sequence (Q7NP59 entry or part of it T179G/T182G/F185G) above, with G178W, G179T, G182T, G185F counted along it
T8 sequence (Q7NP59 entry or part of it S221G): as the sequence (Q7NP59 entry or part of it T179G/T182G/F185G) above, with G179T, G182T, G185F, S221G counted along it

Consider `CC1=C(/C=C/C(C)=C/C=C/C(C)=C/C=C/C=C(C)/C=C/C=C(C)/C=C/C2=C(C)C(=O)CCC2(C)C)C(C)(C)CCC1=O` [canthaxanthin], for which the carotenoid/retinal binding ratio in experiment [1] was ~ 5%; in [2] it was ~ 19%; in [3] it was ~ 41%; in [4], ~ 37%; in experiment [5], “All mutants critical affect the carotenoid binding but not S181G”; in experiment [7], ~ 42%. The carotenoid/retinal binding ratio in experiment [8] is listed as ~ 69%; in experiment [9], ~ 29%; in experiment [10], ~ 48%; in experiment [11] it was ~ 87%. Besides, in experiment [6], the carotenoid binding result is “with retinal and carotenoid showed no carotenoid binding in the absorption spectrum”.
